Source: patent US11566002B2, “Substituted tetrahydrocyclopenta[C]pyrroles, substituted dihydropyrrolizines, analogues thereof, and methods using same” (priority 2018, dated 2023)
pEC50: −log10 of the molar value. Where two headings read alike, the source gives them in different places.

Tested on: HBV rcDNA
Assay: HepDE19 assay with bDNA quantitation of HBV rcDNA
Assay type: cell-based, hepatitis B virus
Protocol: HepDE19 Assay with bDNA Quantitation of HBV rcDNA:
HepDE19 cell culture system is a HepG2 (human hepatocarcinoma) derived cell line that supports HBV DNA replication and cccDNA formation in a tetracycline (Tet)-regulated manner and produces HBV rcDNA and a detectable reporter molecule dependent on the production and maintenance of cccDNA (Guo, et al., 2007, J. Virol. 81:12472-12484).
HepDE19 (50,000 cells/well) were plated in 96-well collagen-coated tissue-culture treated microtiter plates in DMEM/F12 medium supplemented with 10% fetal bovine serum, 1% penicillin-streptomycin and 1 μg/mL tetracycline and incubated in a humidified incubator at 37° C. and 5% CO2 overnight. Next day, the cells were switched to fresh medium without tetracycline and incubated for 4 hours at 37° C. and 5% CO2. The cells were treated with fresh Tet-free medium with compounds at concentrations starting at 25 μM and a serial, ½ log, 8-point, titration series in duplicate. The final DMSO concentration in the assay was 0.5%. The plates were incubated for 7 days in a humidified incubator at 37° C. and 5% CO2. Following a 7 day-incubation, the level of rcDNA present in the inhibitor-treated wells was measured using a Quantigene 2.0 bDNA assay kit (Affymetrix, Santa Clara, Calif.) with HBV specific custom probe set and manufacturers instructions. Concurrently, the effect of compounds on cell viability was assessed using replicate plates, plated at a density of 5,000 cells/well and incubated for 4 days, to determine the ATP content as a measure of cell viability using the cell-titer glo reagent (CTG; Promega Corporation, Madison, Wis.) as per manufacturer's instructions. The plates were read using a Victor luminescence plate reader (PerkinElmer Model 1420 Multilabel counter) and the relative luminescence units (RLU) data generated from each well was calculated as % inhibition of the untreated control wells and analyzed using XL-Fit module in Microsoft Excel to determine EC50 and EC90 (bDNA) and CC50 (CTG) values using a 4-parameter curve fitting algorithm.
Representative compounds of the invention were tested for their abilities to inhibit formation of relaxed circular DNA (rcDNA) in a HepDE19 assay, as described elsewhere herein.

[1] = HepDE19 cells, Tet-free medium, 7 day-incubation, rcDNA measured by Quantigene 2.0 bDNA assay, top concentration 25 μM; read-out: DE-19 bDNA EC50
[2] = read-out: DE-19 bDNA EC50; HepDE19 cells, Tet-free medium, 7 day-incubation, rcDNA measured by Quantigene 2.0 bDNA assay, top concentration 25 μM
[3] = Hepatitis B virus, HepDE19, 168 h, HepDE19 cells, Tet-free medium, 7 day-incubation, rcDNA measured by Quantigene 2.0 bDNA assay, top concentration 25 μM; read-out: DE-19 bDNA EC50

CCn1cc2c(c1C(=O)Nc1ccc(F)c(Cl)c1)CCC2NC(=O)OCc1ccn(C)n1 (single isomer, unassigned) [Compound 27, (1-Methyl-1H-pyrazol-3-yl)methyl (1-((3-chloro-4-fluorophenyl)carbamoyl)-2-ethyl-2,4,5,6-tetrahydrocyclopenta[c]pyrrol-4-yl)carbamate] showed a pEC50 [1] of 5.82.
For CCn1cc2c(c1C(=O)Nc1ccc(F)c(Cl)c1)CCC2NC(=O)OCc1ccn(C)n1 (single isomer, unassigned) [Compound 28, (1-Methyl-1H-pyrazol-3-yl)methyl (1-((3-chloro-4-fluorophenyl)carbamoyl)-2-ethyl-2,4,5,6-tetrahydrocyclopenta[c]pyrrol-4-yl)carbamate], the pEC50 [1] was 6.64.
In the case of COC(=O)NC1CCCc2c1cn(C)c2C(=O)Nc1ccc(F)c(Cl)c1 (single isomer, unassigned) [Compound 29, Methyl (1-((3-chloro-4-fluorophenyl)carbamoyl)-2-methyl-4,5,6,7-tetrahydro-2H-isoindol-4-yl)carbamate], the pEC50 [2] was 6.33.
With Cn1cc2c(c1C(=O)Nc1ccc(F)c(Cl)c1)CCCC2NS(=O)(=O)C1CC1 (single isomer, unassigned) [Compound 30, N-(3-Chloro-4-fluorophenyl)-4-(cyclopropanesulfonamido)-2-methyl-4,5,6,7-tetrahydro-2H-isoindole-1-carboxamide] the pEC50 [1] was 5.68.
With Cn1ccc(COC(=O)NC2CCCc3c2cn(C)c3C(=O)Nc2ccc(F)c(Cl)c2)n1 (single isomer, unassigned) [Compound 31, (1-Methyl-1H-pyrazol-3-yl)methyl (1-((3-chloro-4-fluorophenyl)carbamoyl)-2-methyl-4,5,6,7-tetrahydro-2H-isoindol-4-yl)carbamate] the pEC50 [3] was 6.30.
For Cn1cnc(COC(=O)NC2CCCc3c2cn(C)c3C(=O)Nc2ccc(F)c(Cl)c2)n1 (single isomer, unassigned) [Compound 33, (1-Methyl-1H-1,2,4-triazol-3-yl)methyl (1-((3-chloro-4-fluorophenyl)carbamoyl)-2-methyl-4,5,6,7-tetrahydro-2H-isoindol-4-yl)carbamate], the pEC50 [3] was 7.52.
Compound Cn1cc2c(c1C(=O)Nc1ccc(F)c(Cl)c1)CCC2NC(=O)OCc1ncco1 (single isomer, unassigned) [Compound 34, Oxazol-2-ylmethyl (1-((3-chloro-4-fluorophenyl)carbamoyl)-2-methyl-2,4,5,6-tetrahydrocyclopenta[c]pyrrol-4-yl)carbamate] has a pEC50 [1] of 7.10.
In the case of Cn1cc2c(c1C(=O)Nc1ccc(F)c(Cl)c1)CCC2NC(=O)OCc1ncco1 (single isomer, unassigned) [Compound 35, Oxazol-2-ylmethyl (1-((3-chloro-4-fluorophenyl)carbamoyl)-2-methyl-2,4,5,6-tetrahydrocyclopenta[c]pyrrol-4-yl)carbamate], the pEC50 [1] was 5.74.
Work on Cn1cc2c(c1C(=O)Nc1ccc(F)c(Cl)c1)CCC2NC(=O)OCc1cnco1 (single isomer, unassigned) [Compound 36, Oxazol-5-ylmethyl (1-((3-chloro-4-fluorophenyl)carbamoyl)-2-methyl-2,4,5,6-tetrahydrocyclopenta[c]pyrrol-4-yl)carbamate] yielded a pEC50 [1] of 7.70.
For Cn1cc2c(c1C(=O)Nc1ccc(F)c(Cl)c1)CCC2NC(=O)OCc1cnco1 (single isomer, unassigned) [Compound 37, Oxazol-5-ylmethyl (1-((3-chloro-4-fluorophenyl)carbamoyl)-2-methyl-2,4,5,6-tetrahydrocyclopenta[c]pyrrol-4-yl)carbamate], the pEC50 [1] was 5.59.
In the case of COC(=O)NC1CCn2c(C(=O)Nc3ccc(F)c(Cl)c3)ccc21 (single isomer, unassigned) [Compound 38, Methyl (5-((3-chloro-4-fluorophenyl)carbamoyl)-2,3-dihydro-1H-pyrrolizin-1-yl)carbamate], the pEC50 [2] was 5.33.
COC(=O)NC1CCn2c(C(=O)Nc3ccc(F)c(Cl)c3)ccc21 (single isomer, unassigned) [Compound 39, Methyl (5-((3-chloro-4-fluorophenyl)carbamoyl)-2,3-dihydro-1H-pyrrolizin-1-yl)carbamate] was tested, and the pEC50 [2] was 4.82.
Compound Cn1cnc(COC(=O)NC2CCn3c(C(=O)Nc4ccc(F)c(Cl)c4)ccc32)n1 (single isomer, unassigned) [Compound 40, (1-Methyl-1H-1,2,4-triazol-3-yl)methyl (5-((3-chloro-4-fluorophenyl)carbamoyl)-2,3-dihydro-1H-pyrrolizin-1-yl)carbamate] has a pEC50 [1] of 5.18.
For Cn1cnc(COC(=O)NC2CCn3c(C(=O)Nc4ccc(F)c(Cl)c4)ccc32)n1 (single isomer, unassigned) [Compound 41, (1-Methyl-1H-1,2,4-triazol-3-yl)methyl (5-((3-chloro-4-fluorophenyl)carbamoyl)-2,3-dihydro-1H-pyrrolizin-1-yl)carbamate], the pEC50 [1] was no more than 4.60.
Compound Cn1cnc(COC(=O)NC2CCc3c2c(Br)n(C)c3C(=O)Nc2ccc(F)c(Cl)c2)n1 (single isomer, unassigned) [Compound 47, (1-Methyl-1H-1,2,4-triazol-3-yl)methyl (3-bromo-1-((3-chloro-4-fluorophenyl)carbamoyl)-2-methyl-2,4,5,6-tetrahydrocyclopenta[c]pyrrol-4-yl)carbamate] has a pEC50 [1] of 5.51.
Cn1cnc(COC(=O)NC2CCc3c2c(Br)n(C)c3C(=O)Nc2ccc(F)c(Cl)c2)n1 (single isomer, unassigned) [Compound 48, (1-Methyl-1H-1,2,4-triazol-3-yl)methyl (3-bromo-1-((3-chloro-4-fluorophenyl)carbamoyl)-2-methyl-2,4,5,6-tetrahydrocyclopenta[c]pyrrol-4-yl)carbamate] was tested, and the pEC50 [1] was 8.00.
In the case of Cn1cc2c(c1C(=O)Nc1ccc(F)c(Cl)c1)CCC2NC(=O)OCCC#N (single isomer, unassigned) [Compound 49, 2-Cyanoethyl (1-((3-chloro-4-fluorophenyl)carbamoyl)-2-methyl-2,4,5,6-tetrahydrocyclopenta[c]pyrrol-4-yl)carbamate], the pEC50 [1] was 7.22.
For Cn1cc2c(c1C(=O)Nc1ccc(F)c(Cl)c1)CCC2NC(=O)OCCC#N (single isomer, unassigned) [Compound 50, 2-Cyanoethyl (1-((3-chloro-4-fluorophenyl)carbamoyl)-2-methyl-2,4,5,6-tetrahydrocyclopenta[c]pyrrol-4-yl)carbamate], the pEC50 [1] was 5.52.
With Cn1cnc(COC(=O)NC2CCc3c2c(Cl)n(C)c3C(=O)Nc2ccc(F)c(Cl)c2)n1 (single isomer, unassigned) [Compound 51, (1-Methyl-1H-1,2,4-triazol-3-yl)methyl (3-chloro-1-((3-chloro-4-fluorophenyl)carbamoyl)-2-methyl-2,4,5,6-tetrahydrocyclopenta[c]pyrrol-4-yl)carbamate] the pEC50 [1] was 8.00.
Cn1cnc(COC(=O)NC2CCc3c2c(Cl)n(C)c3C(=O)Nc2ccc(F)c(Cl)c2)n1 (single isomer, unassigned) [Compound 52, (1-Methyl-1H-1,2,4-triazol-3-yl)methyl (3-chloro-1-((3-chloro-4-fluorophenyl)carbamoyl)-2-methyl-2,4,5,6-tetrahydrocyclopenta[c]pyrrol-4-yl)carbamate] showed a pEC50 [1] of 6.51.
